Values quoted from earlier work as cited in US20230390254A1, “PHARMACEUTICAL COMPOSITIONS OF UBROGEPANT AND PROCESS FOR PREPARATION THEREOF” (Aurobindo Pharma Ltd, priority 2022, published 2023).
Where two headings read alike, the source gives them in different places.

Legend:
[1] = not given; remark: listed apart in the source
[2] = disclosed in U.S. Pat. No. 10,117,836

solubility (in acetone): freely soluble
solubility (in acetonitrile): freely soluble
solubility (in ethanol): freely soluble
solubility (in methanol): freely soluble
solubility (in water): insoluble
solubility (BCS) [1]: low solubility
aqueous solubility [2]: poor aqueous solubility
Compound: C[C@@H]1[C@H](c2ccccc2)C[C@H](NC(=O)c2cnc3c(c2)C[C@@]2(C3)C(=O)Nc3ncccc32)C(=O)N1CC(F)(F)F [Ubrogepant, (3′S)—N-((3 S,5S,6R)-6-methyl-2-oxo-5-phenyl-1-(2,2,2trifluoroethyl)piperidin-3-yl)-2′-oxo-1′,2′,5,7 tetrahydrospiro[cyclopenta[b]pyridine-6,3′-pyrrolo[2,3b]pyridine]-3-carboxamide]
